Laboratory results reported in patent US9913828B2, “Benzothiazolone compound” (Novartis AG, priority 2011, dated 2018).

Columns and labels:
[1] = tested on: isolated Langendorff perfused rabbit hearts; test: Automaticity in isolated Langendorff perfused rabbit hearts
[2] = tested on: isolated rabbit sino-atrial nodes; test: Sino-atrial node beating rate in isolated rabbit right atrium
Description: New Zealand white female rabbits were killed by exsanguination after a deep anesthesia using a mixture of ketamine/xylazine, i.v. The heart was quickly removed and placed in Tyrode's solution. […] The right atrium was separated from the rest of the heart. The preparations were mounted in a tissue bath and kept at 37±0.5° C. for at least one hour stabilization. Action potentials (AP) were intracellularly recorded with a standard glass microelectrode filled with 3 M KCl, connected to a high input impedance-neutralizing amplifier (VF-180 microelectrode amplifier, Bio-Logic). […] After one hour of stabilization, compounds were added to the Tyrode's solution at the increasing concentrations, each concentration being maintained for 30 minutes. There was no wash-out between two concentrations. Electrophysiological measurements were made by analyzing action potentials during the experimental protocol at the end of the 30 minute perfusion period. The SA spontaneous frequency was evaluated by counting the number of beats every 10 seconds to express the results in number of beats per minute (bpm). Data were expressed as mean±SEM.

[3] = target: T1, α1A AR (Homo sapiens, UniProt P35348); test: Ca2+ FLIPR assay in human adrenergic Alpha1A CHO-K1 cell line (Test 1); assay type: cell-based; settings: read-out: CHO cells EC50 α1A AR
T1 sequence (P35348 1-466): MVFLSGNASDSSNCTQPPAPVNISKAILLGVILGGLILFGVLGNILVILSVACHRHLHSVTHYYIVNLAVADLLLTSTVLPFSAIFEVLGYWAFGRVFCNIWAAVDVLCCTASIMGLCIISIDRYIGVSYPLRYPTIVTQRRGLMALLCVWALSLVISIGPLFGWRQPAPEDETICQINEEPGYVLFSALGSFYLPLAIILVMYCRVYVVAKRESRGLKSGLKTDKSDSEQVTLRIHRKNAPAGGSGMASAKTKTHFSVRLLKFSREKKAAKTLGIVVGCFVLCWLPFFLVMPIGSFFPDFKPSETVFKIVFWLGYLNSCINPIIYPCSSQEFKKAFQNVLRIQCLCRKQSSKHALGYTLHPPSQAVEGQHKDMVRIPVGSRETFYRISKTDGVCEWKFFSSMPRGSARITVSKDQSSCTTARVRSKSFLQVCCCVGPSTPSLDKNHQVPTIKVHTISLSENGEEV
Description: Compounds acting as agonists induce a transient increase of intracellular calcium. This was recorded on the FLIPR system. A measurement of the signal baseline was first recorded every second for 2 minutes before the injection of the compounds. […] Low controls (unstimulated cells) were determined with the addition of 5 μL of assay buffer.

[4] = Comparative solubilities in H2O with pH adjustment; assay type: physicochemical
Description: The relative solubilities of the free base form and the acetate and glycolate salt forms of Compound A were analysed and the results are show in the table below. Solutions were titrated with addition of HCl or NaOH for pH adjustment. The improved aqueous solubilities of the acetate and glycolate salt forms relative to the free base form of Compound A make the acetate and glycolate salts of Compound A more suitable for subcutaneous injection or infusion.

[5] = tested on: Wistar Han (W-H) IGS rats; test: Heart rate in vivo in rats after s.c. bolus; set-up: species or system rat; settings: up to 0.3 mg/kg, compared to formoterol
Text: Wistar Han (W-H) IGS (International Genetic Standard) rats (Crl:WI(Han)) were purchased from Charles River Laboratories. Femoral arterial and venous catheters were chronically implanted and exteriorized through a spring tether-swivel system and housed in specialized cages. Arterial catheter was connected to a pressure transducer to continuously measure pulse pressure, mean arterial pressure and heart rate, which was derived from the blood pressure signal, via a digital data acquisition system. Compounds were administered via s.c catheter implanted through the skin buttun. Values are expressed as means±SEM (n=3).

[6] = target: β2 AR (Homo sapiens, UniProt P07550); test: cAMP response in CHO cells stably transfected with human β2 adrenoceptor (Test 1)
Sequence of β2 AR (P07550 whole entry): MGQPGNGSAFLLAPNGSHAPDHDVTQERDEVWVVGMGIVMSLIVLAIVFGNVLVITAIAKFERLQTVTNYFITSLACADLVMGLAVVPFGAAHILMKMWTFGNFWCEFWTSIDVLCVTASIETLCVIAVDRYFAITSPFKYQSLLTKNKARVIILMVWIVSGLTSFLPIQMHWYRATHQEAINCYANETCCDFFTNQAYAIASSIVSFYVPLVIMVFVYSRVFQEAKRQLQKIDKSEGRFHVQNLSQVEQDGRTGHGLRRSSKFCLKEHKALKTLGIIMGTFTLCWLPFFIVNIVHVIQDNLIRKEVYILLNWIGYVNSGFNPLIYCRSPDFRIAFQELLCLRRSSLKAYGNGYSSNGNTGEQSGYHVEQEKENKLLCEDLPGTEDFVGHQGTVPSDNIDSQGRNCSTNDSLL

[7] = target: T2, Serotonin 5-HT2C (Homo sapiens, UniProt P28335); test: Aequorin agonist assay in CHO-K1 cells expressing recombinant Serotonin 5-HT2C and Gα16; assay type: cell-based
T2 construct: expressed in transfected cells; host or cells: CHO-K1 cells coexpressing mitochondrial apoaequorin and Gα16
T2 sequence (P28335 33-458): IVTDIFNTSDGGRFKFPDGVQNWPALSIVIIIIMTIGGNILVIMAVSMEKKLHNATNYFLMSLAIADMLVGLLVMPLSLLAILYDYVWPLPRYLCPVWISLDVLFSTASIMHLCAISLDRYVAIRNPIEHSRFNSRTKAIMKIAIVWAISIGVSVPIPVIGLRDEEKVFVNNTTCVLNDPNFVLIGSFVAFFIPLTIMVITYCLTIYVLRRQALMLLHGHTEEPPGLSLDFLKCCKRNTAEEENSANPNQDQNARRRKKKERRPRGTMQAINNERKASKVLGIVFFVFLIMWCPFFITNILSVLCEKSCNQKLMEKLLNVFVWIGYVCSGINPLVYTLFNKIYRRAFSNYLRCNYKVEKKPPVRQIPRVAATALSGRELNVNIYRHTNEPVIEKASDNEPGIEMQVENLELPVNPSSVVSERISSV
Description: CHO-K1 cells coexpressing mitochondrial apoaequorin, recombinant Serotonin 5-HT2Cne and the promiscuous G protein Gα16, grown to mid-log phase in culture media without antibiotics were detached with PBS-EDTA, centrifuged and resuspended in assay buffer (DMEM/HAM's F12 with HEPES, without phenol red+0.1% BSA protease free) at a concentration of 1×10^6 cells/ml. Cells were incubated at room temperature for at least 4 h with coelenterazine h. […] For agonist testing, 50 μL of cell suspension were mixed with 50 μL of test or reference agonist in a 96-well plate. The resulting emission of light is recorded using Hamamatsu Functional Drug Screening System 6000 (FDSS 6000) luminometer. Agonist activity of test compound was expressed as a percentage of the activity of the reference agonist at its EC100 concentration.

[8] = tested on: Rhesus monkeys; test: Heart rate in vivo in rhesus monkeys after single s.c. administration; set-up: species or system rhesus monkey; settings: s.c. bolus, up to 0.03 mg/kg; compared to formoterol
Description: Rhesus monkeys, 24 females with body weight around 4 to 8 kg, were randomized into 4 groups of n=6. The animals were restrained on a chair up to 4 hours after single subcutaneous administration of compounds, and then returned to their pens. Heart rates were measured using a Surgivet V3304 device. Values are expressed as means±SEM (n=6).

Compound | direct effects on the pacemaker activity ([1]; compared to Formoterol) | Automaticity, maximum increase (n = 3) ([1]; isolated rabbit heart) | Sino-Atrial node beating rate, maximum increase (n = 6) [2] | EC50 [3] | Compound A free base solubility in H2O, Conc ([4]; pH 7.3) | Compound A free base solubility in H2O, Conc ([4]; pH 7.8) | heart rate change in rats [5] | EC50 [6] | fold less active on 5-HT2C when compared to the racemate or the (S) enantiomer [7] | fold less active on 5-HT2C when compared to β2 AR agonist activity ([7]; 5-HT2C EC50 versus β2 AR EC50) | heart rate change in rhesus monkeys [8] | melting point
CCCCOc1ccc(CC(C)(C)NC[C@H](O)c2cc(O)cc3[nH]c(=O)sc23)cc1 [Compound A, (R)-7-(2-(1-(4-butoxyphenyl)-2-methylpropan-2-ylamino)-1-hydroxyethyl)-5-hydroxybenzo[d]thiazol-2(3H)-one] | less direct effects | +17% | +6.2% | > 10 µM | <0.01 mg/mL | <0.01 mg/mL | less heart rate increases | < 10 nM | over 10 fold | 50 fold | less heart rate increase | –
CCCCOc1ccc(CC(C)(C)NC[C@H](O)c2cc(O)cc3[nH]c(=O)sc23)cc1.O=C(O)CO [Compound A glycolate salt, (R)-7-(2-(1-(4-butoxyphenyl)-2-methylpropan-2-ylamino)-1-hydroxyethyl)-5-hydroxybenzo[d]thiazol-2(3H)-one glycolate salt] | – | – | – | – | – | – | – | – | – | – | – | ~ 188 °C
